From patent US11377444B2, “Pyridopyrimidine compounds acting as mTORC 1/2 dual inhibitors” (MEDSHINE DISCOVERY INC., priority 2017, dated 2022)
Like-named read-outs stand apart in the source and are kept apart here.

Columns and labels:
N87 cell = test: Cell proliferation inhibitory activity (Cell-Titer-Glo), N87; assay type: cell-based; conditions: 72 h; 3 days incubation
Excerpt: (§1) Experimental Embodiment 2: Evaluation of Cell Proliferation Inhibitory Activity
(§2) Experiment objective: To detect cell proliferation inhibitory activity of the tested compounds.
(§3) Experimental principle: The luciferase in the Cell-Titer-Glo reagent produces oxyluciferin using luciferin, oxygen and ATP as reaction substrates, and releases energy in the form of light. Since the reaction of luciferase requires ATP, the total amount of light generated by the reaction is proportional to the total amount of ATP that reflects cell viability.
(§4) Cell lines: MCF-7 cell line […], HT-29 cell line (ATCC-HTB-38), OE21 (ECACC-96062201), NCI-N87 cell line (ATCC-CRL-5822)
(§5) Cell culture medium: (RPMI 1640 culture medium (Invitrogen #1868546; 10% serum Invitrogen #1804958; L-glutamine 1×, Invitrogen #1830863; dual antibiotic Hyclone #J170012))
(§6) Cell Titer-Glo® Luminescent Cell Viability Assay Kit (Promega #G7573)
(§7) The cells were inoculated in a 384- or 96-well plate with a density of 1000 cells per well and 25 μL per well according to the instructions of the cell inoculating plate. The edge wells were not inoculated with cells, and was supplemented with […].
(§8) (i) The mother solution of the compound was 10 mM, and diluted with DMSO to an initial concentration of 4 mM. The compound was added to the compound mother solution, 9 μL per well.
(§9) (ii) The compound was diluted with ECHO liquid-handling workstation. Each well of the cell plate was added with 125 nL compound. Each well of the cell wells in 2nd column and 23rd column was added with 125 nL DMSO, and each of the PBS wells in 1st column and 24th column was added with 125 nL DMSO.
(§10) (iii) Each well of the cell plate was supplemented with 25 μL culture medium, the final volume in each well of the cell plate was 50 μL, […] 3 times dilution, 10 concentrations, each concentration was duplicated in left and right wells, the final DMSO concentration was 0.25%.
(§11) 2.3. After addition of the compound, centrifugation was performed at 1000 rpm for 1 min, and the cell plate was placed in a 37° C., 5% CO2 incubator for 3 days.
(§12) The cell plate was taken out from the incubator and equilibrated at room temperature for 30 minutes. 25 μL Cell-Titer-Glo reagent was added to each well, shaken for one minute to mix thoroughly, centrifuged at 1000 rpm for 1 minute. After 10 minutes, the plate was read on PerkinElmer Envision with a […] reading time was set at 0.2 second.

MCF-7 cell = test: Cell proliferation inhibitory activity (Cell-Titer-Glo), MCF-7; assay type: cell-based; conditions: Homo sapiens, MCF7, 72 h; 3 days incubation
Excerpt: as §1, §2, §3, §4, §5, §6, §7, §8, §9, §10, §11, §12

[1] = Pharmacokinetic evaluation in plasma after IV and PO administration; assay type: in vivo; conditions: female Balb/c mice; for AUC(0-inf) / AUC(0-t) / C0 / clearance / half-life / MRT inf / MRT last / Vd / Cmax / Tmax / bioavailability: mouse; for MRT inf: read-out: MRT0-inf; for MRT last: read-out: MRT0-last; for Vd: read-out: Vdss
Experimental: Experimental Embodiment 3: Pharmacokinetic Evaluation
The test compound was mixed with […] (Cremophor EL), vortexed and sonicated to prepare a 1 mg/mL near-clear solution, which was filtered with a microporous filter membrane for future use. Female Balb/c mice of 18 to 20 grams were selected and the solution of the test compound was administered intravenously at a dose of 1 or 2 mg/kg. The test compound was mixed with an aqueous solution of 1% Tween 80, 9% polyethylene glycol 400, and 90% water, vortexed and sonicated to prepare 1 mg/mL near-clear solution, which was filtered with a microporous filter membrane for future use.
Female Balb/c mice of 18 to 20 grams were selected, and the solution of the test compound was orally administered at a dose of 2 or 10 mg/kg. The whole blood was collected at a certain time, and prepared into plasma. The drug concentration was analyzed by LC-MS/MS, and the pharmacokinetic parameters were calculated using Phoenix WinNonlin software (Pharsight Corporation, USA).

## CNC(=O)c1cccc(-c2ccc3c(N4CCOC[C@@H]4C)nc(N4CCOC5(CCC5)C4)nc3n2)c1 [Embodiment 23]
N87 cell
  IC50: 94 nM
MCF-7 cell
  IC50: 163 nM
[1]; IV 2 mg/kg
  AUCExtra: 0.0592%
  AUMCExtra: 0.616%
  Tlast: 12.0 h
  AUC(0-inf): 13.4 µM·h
  AUC(0-t): 13.4 µM·h
  C0: 12.2 µM
  clearance: 5.08 mL/min/kg
  half-life: 1.47 h
  MRT inf: 1.36 h
  MRT last: 1.35 h
  Vd: 0.414 L/kg
[1]; PO 10 mg/kg
  AUCExtra: 0.414%
  AUMCExtra: 4.62%
  Tlast: 24.0 h
  AUC(0-inf): 60.3 µM·h
  AUC(0-t): 60.1 µM·h
  Cmax: 27.9 µM
  Tmax: 0.25 h
  bioavailability: 89.9%
  half-life: 2.61 h
  MRT inf: 2.49 h
  MRT last: 2.39 h

## CNC(=O)c1cccc(-c2ccc3c(N4CCOC[C@@H]4C)nc(N4CCOC[C@@H]4C)nc3n2)c1 [AZD2014, reference compound]
N87 cell
  IC50: 59 nM
MCF-7 cell
  IC50: 95 nM
[1]; IV 1 mg/kg
  Tlast: 8.00 h
  AUC(0-inf): 4.28 µM·h
  AUC(0-t): 4.27 µM·h
  C0: 4.79 µM
  clearance: 8.41 mL/min/kg
  half-life: 0.967 h
  MRT inf: 1.88 h
  MRT last: 0.268 h
  Vd: 0.677 L/kg
[1]; IV 2 mg/kg
  AUCExtra: 0.384%
  AUMCExtra: 2.95%
  Tlast: 8.00 h
  AUC(0-inf): 8.91 µM·h
  AUC(0-t): 8.88 µM·h
  C0: 8.07 µM
  clearance: 8.08 mL/min/kg
  half-life: 1.05 h
  MRT inf: 1.24 h
  MRT last: 1.2 h
  Vd: 0.599 L/kg
[1]; PO 2 mg/kg
  AUCExtra: 0.0496%
  AUMCExtra: 0.347%
  Tlast: 12.0 h
  AUC(0-inf): 7.24 µM·h
  AUC(0-t): 8.24 µM·h
  Cmax: 4.37 µM
  Tmax: 0.5 h
  bioavailability: 96.2%
  half-life: 1.14 h
  MRT inf: 1.95 h
  MRT last: 1.95 h
[1]; PO 10 mg/kg
  AUCExtra: 0.156%
  AUMCExtra: 1.82%
  Tlast: 24.0 h
  AUC(0-inf): 41.5 µM·h
  AUC(0-t): 41.4 µM·h
  Cmax: 17 µM
  Tmax: 0.25 h
  bioavailability: 93.1%
  half-life: 3.46 h
  MRT inf: 2.5 h
  MRT last: 2.45 h

## C[C@H]1COCCN1c1nc(N2CCOC3(CC3)C2)nc2nc(-c3cccc(C(N)=O)c3)ccc12 [Embodiment 51]
N87 cell
  IC50: 59 nM
MCF-7 cell
  IC50: 208 nM
[1]; IV 2 mg/kg
  AUCExtra: 0.0469%
  AUMCExtra: 0.400%
  Tlast: 12.0 h
  AUC(0-inf): 9.37 µM·h
  AUC(0-t): 9.73 µM·h
  C0: 8.24 µM
  clearance: 7.72 mL/min/kg
  half-life: 1.1 h
  MRT inf: 1.6 h
  MRT last: 1.59 h
  Vd: 0.739 L/kg
[1]; PO 10 mg/kg
  AUCExtra: 0.225%
  AUMCExtra: 1.02%
  Tlast: 12.0 h
  AUC(0-inf): 42 µM·h
  AUC(0-t): 41.9 µM·h
  Cmax: 12.8 µM
  Tmax: 0.25 h
  bioavailability: 89.5%
  half-life: 1.22 h
  MRT inf: 3.04 h
  MRT last: 3.02 h
